The text below walks through data of ChEMBL document CHEMBL1155139 (Antimicrob Agents Chemother, 2007).

Assay [1] concerns Plasmodium berghei. Description: Antimalarial activity as reduced parasitaemia at day 3 against Plasmodium berghei infected MORO mice (Mus musculus) at 100 mg/kg peroral dose. The format is functional. Also on record: scale not given: the % may be the effect or the level left. The settings on record: route oral.
In assay [2] the test system is Plasmodium berghei. The assay is described as follows: Antimalarial activity as reduced parasitaemia at day 3 against Plasmodium berghei infected MORO mice (Mus musculus) at 100 mg/kg subcutaneous dose. The format is functional. The arrangement: scale not given: the % may be the effect or the level left.
Assay [3] concerns Plasmodium falciparum. Description: Antimalarial activity against Plasmodium falciparum NF54. It counts as functional, organism-based.
Assay [4] deals with Plasmodium falciparum. Description: Antimalarial activity against Plasmodium falciparum K1. It counts as functional, organism-based.
The subject of assay [5] is Plasmodium falciparum. Description: Antimalarial activity against Plasmodium falciparum FcB1. The format is functional, organism-based. Particulars: FcB1/Columbia.

As usually defined, the IC50 is the point on the concentration scale where inhibition reaches its midpoint.

The structures appear in SMILES notation. Values after ≈ are worked out from the molar mass of the structure shown.

For `C1CCCC2(CC1)OOC1(CCCCCC1)OO2`, the Activity was 60% in the assay with Plasmodium berghei [1] and 56% in the assay on Plasmodium berghei [2]. Moreover, the IC50 in the assay with Plasmodium falciparum [3] worked out at 0.011 µg/mL (≈ 0.0429 µM); in the assay with Plasmodium falciparum [4], 0.014 µg/mL (≈ 0.0546 µM); in the assay with Plasmodium falciparum [5], 0.021 µg/mL (≈ 0.0819 µM).
For the molecule `C1CCC2(CC1)COC1(CCCCC1)OC2`, the IC50 in the assay on Plasmodium falciparum [3] and with Plasmodium falciparum [4] was above 10 µg/mL throughout.
`CCCCC1(CCCC)OOC(CCCC)(CCCC)OOC(CCCC)(CCCC)OO1`: the IC50 in the assay on Plasmodium falciparum [3] and in the assay with Plasmodium falciparum [4] was above 10 µg/mL throughout.
As to `CCCC1(CCC)OOC(CCC)(CCC)OO1`, the values for the Activity in the assay with Plasmodium berghei [1] and with Plasmodium berghei [2] were 21% and 0%, respectively. For the same molecule, the IC50 was 0.023 µg/mL (≈ 0.0883 µM) in the assay on Plasmodium falciparum [3], 0.04 µg/mL (≈ 0.154 µM) in the assay with Plasmodium falciparum [4] and 0.048 µg/mL (≈ 0.184 µM) in the assay with Plasmodium falciparum [5].
With `CCCCC1(CCCC)OOC(CCCC)(CCCC)OO1`, the Activity stood at 47% with Plasmodium berghei [1] and 5% in the assay on Plasmodium berghei [2]. For the same molecule, the IC50 in the assay on Plasmodium falciparum [3] was 0.088 µg/mL (≈ 0.278 µM); with Plasmodium falciparum [4], 0.071 µg/mL (≈ 0.224 µM).
Regarding `C[C@@H]1CC[C@H]2[C@@H](C)C(=O)O[C@@H]3O[C@@]4(C)CC[C@@H]1[C@]32OO4` [ARTEMISININ], the Activity came out at 98% in the assay on Plasmodium berghei [1] and 99.99% in the assay on Plasmodium berghei [2]. Besides, in the assay with Plasmodium falciparum [3], 0.0034 µg/mL (≈ 0.012 µM) corresponded to half-maximal inhibition (IC50).
`C[C@@H]1CCCCC12OOC1(CCCC[C@@H]1C)OO2` (stereo partly drawn) [WR-148999]: the Activity with Plasmodium berghei [1] is listed as 99.7%; with Plasmodium berghei [2] it was 99.99%.
